{
  "source": "patent US20240181000A1",
  "about": "“LGG-DERIVED PEPTIDES AND METHODS OF USE THEREOF” (Ohio State Innovation Foundation, priority 2021, published 2024)",
  "key": {"cecal microbiota": {"test_system": "cecal microbiota", "assay": "Cecal microbiome analysis (peptides, APEC infected)", "type": "in vivo, chickens", "procedure": "Cecal microbiome analysis: To investigate the impact of peptides (P1, P2, and P3) treatment (50 mg/kg and 100 mg/kg) on cecal microbiome of chickens, 16S rRNA based metagenomic study was conducted as previously described. DNA was extracted from 0.2 g of cecal contents using PureLink™ Microbiome DNA Purification Kit (Thermofisher Scientific) and treated with RNase A (2 μL of 100 mg/mL solution per sample; Qiagen) to remove the RNA. DNA quantity and quality were measured using NanoDrop 2000c Spectrophotometer (Thermo Fisher Scientific). The extracted DNA samples were subjected to 16S rRNA V4-V5 sequencing at molecular and cellular imaging center (MCIC), Ohio Agricultural Research and Development Center (OARDC) (mcic.osu.edu/genomics/illumina-sequencing). Amplicon libraries were prepared using IFU KAPA HiFi HotStart ReadyMixPCR Kit (Roche) and PCR clean-up was performed using Agencourt AMPure XP beads (BECKMAN COULTER Life Sciences). Nextera XT DNA Library Preparation Kit (Illumina) was used to generate Illumina library and sequencing was performed using Illumina MiSeq platform generating paired end 300-bp reads.\nFor the metagenomic analysis, QIIME (Quantitative Insights into Microbial Ecology) 2 bioinformatics platform (qiime2.org/) was used. Quality control of the raw reads was performed using FastQC 0.11.8 (Babraham Bioinformatics). Trimmomatic-0.33 was used to trim the adaptor and other illumina-specific sequences (www.usadellab.org/cms/?page=trimmomatic). The trimmed sequences (fastq.gz) were then imported into the QIIME 2 as a manifest file format (PairedEndManifestPhred33V2). The feature table construction and additional filtering of the sequences was performed using DADA2. The taxonomic analysis was performed using Naive Bayes classifiers trained on the Silva 132 99% OTUs (silva-132-99-nb-classifier.qza) database. The phylogenetic diversity was analyzed using align-to-tree-mafft-fasttree pipeline and alpha ([…]) were analyzed using core-metrics-phylogenetic pipeline (docs.qiime2.org/2019.7/tutorials/moving-pictures/). The statistical difference (P<0.05) in the taxonomic composition between the peptides treated, PC, and NC groups was determined using Mann-Whitney U test. The alpha and beta diversity were analyzed using Kruskal-Wallis and PERMANOVA tests (P<0.05), respectively."}, "APEC O78": {"test_system": "APEC O78", "assay": "Efficacy of peptides in chickens (oral, twice a day)", "type": "in vivo", "details": "for Reduction of APEC colonization in cecum: 7 dpi", "procedure": "Peptides were administered through orally twice a day from day 1 to day 7 either at 50 mg/kg or 100 mg/kg dose. On day 2, chickens were infected orally with Rif^γ APEC O78 (1-2×10^9 CFU/chicken). At day 9, chickens were euthanized, necropsied and cecum and internal organs (lung, liver, heart, and kidney) were processed for quantification of APEC load. The body weight of chickens was measured at day 9.\nEfficacy of peptides in chickens: Animal study was approved by The Ohio State University Institutional Animal Care and Use Committee (IACUC, protocol #2010 A00000149). Chickens were euthanized using CO2 following American Veterinary Medical Association (AVMA) guidelines. Standard animal husbandry practices were followed throughout the experiment. Feed and water were provided ad libitum. The efficacy of peptides (P1, P2, and P3) were assessed at 50 mg/kg and 100 mg/kg doses in two successive experiments using commercial broiler chickens (n=10/group) (Cobb & Ross; Case Farms Ohio Hatchery, Strasburg, OH). […] Briefly, peptides dissolved in water [5 mg (50 mg/kg) or 10 mg (100 mg/kg) in 100 μL] were administered orally twice a day from day 1 (one day before APEC infection) today 7 (5 days post-infection; dpi). On day 2, chickens were infected orally with rifampicin resistant (Rif) APEC O78(27) (1-2×10^9 CFU/chicken). At 7 dpi (day 9), chickens were euthanized, necropsied and cecum and internal organs (lung, liver, heart, and kidney) were assessed for APEC load by plating on MacConkey agar plates containing 50 μg/mL rifampicin. The body weight of chickens was measured at the day of necropsy (day 9). The positive (PC; infected but not treated) and negative (NC; non-infected and non-treated) control chickens were included in both experiments. The statistical significance (P<0.05) of treatment on reduction of APEC load and effect on body weight was calculated using one-way ANOVA followed by Tukey's post-hoc test. […] Bacteria were grown in LB media and MICs were determined as above against respective peptides."}},
  "note": "Marks after values point to notes of the source that are not given here. No end group written: not given here.",
  "data": [
    {"substance": "PDENK [Peptide P2, PDENK]", "values": [
      {"measurement": "Beta-diversity (weighted unifrac) vs NC chickens", "setting": "cecal microbiota; 50 mg/kg", "value": "similar"},
      {"measurement": "Beta-diversity (weighted unifrac) vs NC chickens", "setting": "cecal microbiota; 100 mg/kg", "value": "significantly (P<0.01) different"},
      {"measurement": "Relative abundance Clostridia", "setting": "cecal microbiota; class, 100 mg/kg", "value": 64.92, "unit": "%"},
      {"measurement": "Relative abundance Lachnospiraceae", "setting": "cecal microbiota; family, 100 mg/kg", "value": 56.10, "unit": "%"},
      {"measurement": "Relative abundance Lactobacillaceae", "setting": "cecal microbiota; family, 100 mg/kg", "value": 1.38, "unit": "%"},
      {"measurement": "Relative abundance Leuconostocaceae", "setting": "cecal microbiota; family, 100 mg/kg, from 0.31%", "value": 0, "unit": "%"},
      {"measurement": "Relative abundance Clostridiaceae 1", "setting": "cecal microbiota; family, 100 mg/kg, from 0.53%", "value": 0, "unit": "%"},
      {"measurement": "Relative abundance (%) Anaerotruncus", "setting": "cecal microbiota; genus, 50-mg/kg dose", "value": 0.00, "unit": "%"},
      {"measurement": "Relative abundance (%) Bacteroides", "setting": "cecal microbiota; genus, 50-mg/kg dose", "value": 55.87, "unit": "%"},
      {"measurement": "Relative abundance (%) Clostridioides", "setting": "cecal microbiota; genus, 50-mg/kg dose", "value": 0.00, "unit": "%"},
      {"measurement": "Relative abundance (%) Clostridium sensu stricto 1", "setting": "cecal microbiota; genus, 50-mg/kg dose", "value": 0.00, "unit": "%"},
      {"measurement": "Relative abundance (%) Enterococcus", "setting": "cecal microbiota; genus, 50-mg/kg dose", "value": 1.24, "unit": "%"},
      {"measurement": "Relative abundance (%) Erysipelatoclostridium", "setting": "cecal microbiota; genus, 50-mg/kg dose", "value": "3.84^a %"},
      {"measurement": "Relative abundance (%) Escherichia-Shigella", "setting": "cecal microbiota; genus, 50-mg/kg dose", "value": 4.95, "unit": "%"},
      {"measurement": "Relative abundance (%) Flavonifractor", "setting": "cecal microbiota; genus, 50-mg/kg dose", "value": 0.68, "unit": "%"},
      {"measurement": "Relative abundance (%) Lachnospiraceae (uncultured)", "setting": "cecal microbiota; genus, 50-mg/kg dose", "value": 2.30, "unit": "%"},
      {"measurement": "Relative abundance (%) Oscillibacter", "setting": "cecal microbiota; genus, 50-mg/kg dose", "value": 0.00, "unit": "%"},
      {"measurement": "Relative abundance (%) Pediococcus", "setting": "cecal microbiota; genus, 50-mg/kg dose", "value": 0.74, "unit": "%"},
      {"measurement": "Relative abundance (%) Ruminiclostridium 5", "setting": "cecal microbiota; genus, 50-mg/kg dose", "value": 0.23, "unit": "%"},
      {"measurement": "Relative abundance (%) Ruminiclostridium 9", "setting": "cecal microbiota; genus, 50-mg/kg dose", "value": 1.25, "unit": "%"},
      {"measurement": "Relative abundance (%) Ruminococcus gnavus group", "setting": "cecal microbiota; genus, 50-mg/kg dose", "value": 0.00, "unit": "%"},
      {"measurement": "Relative abundance (%) Ruminococcus torques group", "setting": "cecal microbiota; genus, 50-mg/kg dose", "value": 9.83, "unit": "%"},
      {"measurement": "Relative Abundance (%) Blautia", "setting": "cecal microbiota; genus, 100-mg/kg dose", "value": 0.00, "unit": "%"},
      {"measurement": "Relative Abundance (%) Caproiciproducens", "setting": "cecal microbiota; genus, 100-mg/kg dose", "value": 0.00, "unit": "%"},
      {"measurement": "Relative Abundance (%) Lactobacillus", "setting": "cecal microbiota; genus, 100-mg/kg dose", "value": 0.00, "unit": "%"},
      {"measurement": "Relative Abundance (%) Sellimonas", "setting": "cecal microbiota; genus, 100-mg/kg dose", "value": "0.00^b %"},
      {"measurement": "Relative Abundance (%) [Clostridium] innocuum group", "setting": "cecal microbiota; genus, 100-mg/kg dose", "value": "0.00^b %"},
      {"measurement": "Relative Abundance (%) [Eubacterium] coprostanoligenes group", "setting": "cecal microbiota; genus, 100-mg/kg dose", "value": 0.00, "unit": "%"},
      {"measurement": "Relative abundance (%) Anaerotruncus", "setting": "cecal microbiota; genus, 100-mg/kg dose", "value": 0.00, "unit": "%"},
      {"measurement": "Relative abundance (%) Bacillus", "setting": "cecal microbiota; genus, 100-mg/kg dose", "value": 0.37, "unit": "%"},
      {"measurement": "Relative abundance (%) Butyricicoccus", "setting": "cecal microbiota; genus, 100-mg/kg dose", "value": 1.53, "unit": "%"},
      {"measurement": "Relative abundance (%) Clostridiales vadin BB60 group", "setting": "cecal microbiota; genus, 100-mg/kg dose", "value": 0.00, "unit": "%"},
      {"measurement": "Relative abundance (%) Clostridioides", "setting": "cecal microbiota; genus, 100-mg/kg dose", "value": 0.00, "unit": "%"},
      {"measurement": "Relative abundance (%) Clostridium sensu stricto 1", "setting": "cecal microbiota; genus, 100-mg/kg dose", "value": 0.00, "unit": "%"},
      {"measurement": "Relative abundance (%) Enterococcus", "setting": "cecal microbiota; genus, 100-mg/kg dose", "value": 2.01, "unit": "%"},
      {"measurement": "Relative abundance (%) Erysipelatoclostridium", "setting": "cecal microbiota; genus, 100-mg/kg dose", "value": "14.71^b %"},
      {"measurement": "Relative abundance (%) Escherichia-Shigella", "setting": "cecal microbiota; genus, 100-mg/kg dose", "value": 13.77, "unit": "%"},
      {"measurement": "Relative abundance (%) Flavonifractor", "setting": "cecal microbiota; genus, 100-mg/kg dose", "value": "0.68^b %"},
      {"measurement": "Relative abundance (%) Lachnospiraceae (uncultured)", "setting": "cecal microbiota; genus, 100-mg/kg dose", "value": 0.73, "unit": "%"},
      {"measurement": "Relative abundance (%) Lactococcus", "setting": "cecal microbiota; genus, 100-mg/kg dose", "value": 0.40, "unit": "%"},
      {"measurement": "Relative abundance (%) Oscillibacter", "setting": "cecal microbiota; genus, 100-mg/kg dose", "value": 0.13, "unit": "%"},
      {"measurement": "Relative abundance (%) Paenibacillus", "setting": "cecal microbiota; genus, 100-mg/kg dose", "value": 0.00, "unit": "%"},
      {"measurement": "Relative abundance (%) Pediococcus", "setting": "cecal microbiota; genus, 100-mg/kg dose", "value": "1.38^b %"},
      {"measurement": "Relative abundance (%) Ruminiclostridium 5", "setting": "cecal microbiota; genus, 100-mg/kg dose", "value": 0.28, "unit": "%"},
      {"measurement": "Relative abundance (%) Ruminiclostridium 9", "setting": "cecal microbiota; genus, 100-mg/kg dose", "value": 0.78, "unit": "%"},
      {"measurement": "Relative abundance (%) Ruminococcacede UCG-005", "setting": "cecal microbiota; genus, 100-mg/kg dose", "value": 2.19, "unit": "%"},
      {"measurement": "Relative abundance (%) Ruminococcus torques group", "setting": "cecal microbiota; genus, 100-mg/kg dose", "value": 10.37, "unit": "%"},
      {"measurement": "Relative abundance (%) UBA1819", "setting": "cecal microbiota; genus, 100-mg/kg dose", "value": 0.68, "unit": "%"},
      {"measurement": "Relative abundance (%) Weissella", "setting": "cecal microbiota; genus, 100-mg/kg dose", "value": "2.43^a %"},
      {"measurement": "Reduction of APEC colonization in cecum", "setting": "APEC O78; 50 mg/kg dose", "value": 0.9, "unit": "logs"},
      {"measurement": "Number of chickens positive for APEC in internal organs", "setting": "APEC O78; 100 mg/kg dose", "value": "reduced the number of chickens positive for APEC"},
      {"measurement": "Reduction of APEC colonization in cecum", "setting": "APEC O78; 100 mg/kg dose", "value": 1.3, "unit": "logs"}
    ]}
  ]
}
